# Data taken from patent publication US20250188078A1, “SMALL MOLECULE INHIBITORS OF THE CRL4 UBIQUITIN LIGASE” (Cornell University, priority 2022, published 2025).
# Values joined by “and” are separate entries in the source; they are usually repeats but may differ in a detail not shown here. Equal values may be shown once. Read-outs that look alike come from different tables or passages of the source.
# Key:
# [1] = Dynamic light scattering (DLS) solubility assay; type: physicochemical; details: normalized intensity ratio of 25 μM compound vs DMSO, in PBS
# Method in brief: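 Compounds diluted from DMSO into PBS at final concentrations of 200 μM to 0.78 μM, in triplicate, and aggregation measured by light scattering intensity. A ratio above 2 scores insoluble (−), below 2 soluble (+), and around 2 (+/−).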
# [2] = tested on: CUL4A^low T47D breast cancer cells; test: Cell killing in CUL4-low T47D cells (CellTiter Glo); type: cell-based; details: Homo sapiens, 192 h, 8 days treatment
# DDB1-BPB = DDB1-BPB (Homo sapiens (Human), UniProt Q16531); test: Surface Plasmon Resonance (SPR) binding to DDB1-BPB; details: DDB1-BPB immobilized
# Sequence of DDB1-BPB (Q16531 403-706): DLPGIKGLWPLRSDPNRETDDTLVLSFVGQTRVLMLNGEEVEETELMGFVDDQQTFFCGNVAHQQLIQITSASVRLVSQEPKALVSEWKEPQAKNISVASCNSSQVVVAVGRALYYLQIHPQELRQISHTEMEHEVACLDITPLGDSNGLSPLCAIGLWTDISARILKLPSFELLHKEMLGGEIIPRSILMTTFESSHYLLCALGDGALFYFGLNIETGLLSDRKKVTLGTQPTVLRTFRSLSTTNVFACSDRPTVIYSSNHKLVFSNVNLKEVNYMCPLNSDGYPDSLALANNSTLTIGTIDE
# Excerpt: Kd represents dissociation constant, which measures the affinity of small molecule binding to the scaffold DDB1-BPB by Surface Plasmon Resonance (SPR) (https://www.bio-rad.com/webroot/web/pdf/lsr/literature/Bulletin_6414.pdf, hereby incorporated by reference in its entirety) (see Table 1, column 8). To assess the interaction between DDB1-BPB and compounds, a multi-parametric SPR instrument (BioRad ProteON XPR360) was used. DDB1-BPB was immobilized onto the GLH sensor surface in a variety of ways as follows: flow channels were activated in parallel with 1/20 diluted EDC/SNHS. DDB1-BPB was diluted to 0.1 mg/mL in sodium acetate pH 4.5 and directly coupled onto channel for 4 min. Excess reactive esters were blocked with a 5-min injection of 1 M ethanolamine. Mean immobilization levels were 17,000 RU with <2% variation along a strip. One channel was left unmodified to provide an additional reference surface. Next, the binding kinetics of compounds on surfaces was determined in a single injection using a “one-shot” kinetic mode. Typically, compound was prepared as a twofold serial dilution (0, 3.125, 6.25, 12.5, 25, 50 μM) and injected for 60 s at […]. Dissociation was monitored for 800 s. Surfaces were regenerated with multiple 30-s pulses of 60 mM phosphoric acid so that the experiment could be reproduced. All resulting sensor grams were collected and analyzed using the ProteOn manager software.
# [3] = Pharmacokinetic study: compound concentration in MDA-MB-468 xenograft tumor tissue; type: in vivo, mouse; details: for Tissue concentration: individual tumors
# Experimental: Female athymic Nu/J nude mice, 6 weeks old were purchased from the Jackson Laboratory. Mice were housed in laminar air-flow cabinet under specific pathogen-free conditions. 5×10^6 MDA-MB-468 cells in 100 μl diluted BD Matrigel™ Basement Membrane Matrix (BD Bioscience, Matrix:PBS is 1:1) were injected subcutaneously in each flank of mouse. We detected tumors once every four days by fine calipers measurement. When tumor size reached 100 mm^3, mice were randomly grouped and treated with DMSO or 50 mg/kg PA99 compound. The stock solution of compound was 10 mg/ml, which formulated with 10% DMSO, 10% Tween-80 and 80% H2O. PA99 was injected into mouse by intraperitoneal injection ([…]) three times per week. Mouse weights and tumor volumes were measured twice/week. For the pharmacokinetic study, samples were collected after compound injection (30 mins, 1 h, 3 h, 6 h). Four tumor samples were collected at each time point for mass spectrometry analysis to determine the compound concentrations in tumor tissues.
# [4] = tested on: CUL4A^high xenograft and PDX tumors; test: CUL4A^high xenograft and PDX tumor growth; type: in vivo, mouse; details: 50 mg/kg intraperitoneal; breast cancer xenograft and colorectal cancer PDX models, FIGS. 8A-8C
# Experimental: Measurements were performed according to the following procedure. Mouse body weights were monitored using a scale. Tumors were assessed and volumes measured with fine calipers twice a week. The tumor volumes were calculated with the formula: Volume=(Length×Width^2)/2. Compound PA99 was administered via intraperitoneal doses in an amount of 50 mg/kg every X days, where X is the number of days shown in FIGS. 8A-8C.
# [5] = tested on: CUL4A^high MDA-MB-468 and CUL4^low (T47D) cells; test: Selective killing of CUL4A^high tumors (MDA-MB-468 vs T47D, Cell Titer Glo); type: cell-based; details: FIG. 10, 8 days treatment
# Experimental: CUL4A^high MDA-MB-468 breast cancer cells and CUL4^low (T47D) cells were seeded in 96 well plates. After 24 hours, cells were treated with DMSO or compound PA99. After 8 days treatment, cell viability was examined by using CellTiter Glo kit (Promega #7570) following the manufacturer's guidelines. EC50 concentration was calculated by Prism 8 XY analysis nonlinear regression (curve fit-Log(inhibitor) vs response). Lower EC50 indicates high cell killing potential in CUL4^high MDA-MB-468 cells.
# [6] = T47D cells, read-out: EC50 CUL4-Low Cells (cell killing)
Compound,Solubility (DLS Assay) [1],"EC50 [2, 6] [µM]","EC50 ([2]; T47D, Table 3, 0 to 20 μM compound, read-out: EC50 OF cell killing, T47D) [µM]",Kd (DDB1-BPB) [µM],Tissue concentration ([3]; 30 min after 50 mg/kg intraperitoneal injection),Tissue concentration ([3]; 1 hr after 50 mg/kg intraperitoneal injection),Tissue concentration ([3]; 3 hr after 50 mg/kg intraperitoneal injection),Tissue concentration ([3]; 6 hr after 50 mg/kg intraperitoneal injection),"concentration at 30 min ([3]; female, athymic Nu/J nude, mouse, MDA-MB-468 xenograft tumor, intraperitoneal, 50 mg/kg, 30 min, average of four tumors)","concentration at 1 h ([3]; female, athymic Nu/J nude, mouse, MDA-MB-468 xenograft tumor, intraperitoneal, 50 mg/kg, 1 hr, average of four tumors)","concentration at 3 h ([3]; female, athymic Nu/J nude, mouse, MDA-MB-468 xenograft tumor, intraperitoneal, 50 mg/kg, 3 hr, average of four tumors)","concentration at 6 h ([3]; female, athymic Nu/J nude, mouse, MDA-MB-468 xenograft tumor, intraperitoneal, 50 mg/kg, 6 hr, average of four tumors)",Tumor growth [4],Killing of CUL4A^high tumors [5]
CN(c1ccc(-c2nc(C(=O)O)cc3c2[nH]c2ccc(F)cc23)cc1)S(=O)(=O)c1ccccc1 [PA93],-(insoluble),> 100,–,–,–,–,–,–,–,–,–,–,–,–
"CN(c1ccc(-c2nc(C(=O)O)cc3c2[nH]c2cccc(F)c23)cc1)S(=O)(=O)c1ccccc1 [PA99, 5-fluoro-1-(4-(N-methylphenylsulfonamido)phenyl)-9H-pyrido[3,4-b]indole-3-carboxylic acid]",–,8.27,8.27,2.13,3910 ng/mL and 8.2 μM and 666 ng/mL and 1.4 μM (2×) and 670 ng/mL and 1010 ng/mL and 2.1 μM,5780 ng/mL and 12.2 μM and 1790 ng/mL and 3.8 μM and 1230 ng/mL and 2.6 μM and 870 ng/mL and 1.8 μM,1400 ng/mL and 2.9 μM and 1340 ng/mL and 2.8 μM and 392 ng/mL and 0.8 μM and 290 ng/mL and 0.6 μM,419 ng/mL and 0.88 μM and 342 ng/mL and 0.72 μM and 1440 ng/mL and 3.0 μM and 913 ng/mL and 1.9 μM,1560 ng/mL and 3.3 µM,2420 ng/mL and 5.1 µM,856 ng/mL and 1.8 µM,779 ng/mL and 1.6 µM,suppression,selective killing
